# Measured values taken from patent publication US20210355106A1, “NEW AMINO-PYRIMIDONYL-PIPERIDINYL DERIVATIVES, A PROCESS FOR THEIR PREPARATION AND PHARMACEUTICAL COMPOSITIONS CONTAINING THEM” (LES LABORATOIRES SERVIER, priority 2018, published 2021).
# Where a name gives a salt, the structure may show the parent alone.
# Target: T1, USP7 (Homo sapiens, UniProt Q93009, C315A)
# T1 construct: 0.25 nM His-His-USP7 (aa208-560, |C315A|) was incubated with compound; His-His (N)
# Test: Inhibition of USP7 by Fluorescence Intensity (FLINT) readings, Ubiquitin-Rhodamine-110 substrate
# Format: biochemical
# Conditions: 0.25 nM His-His-USP7 (aa208-560), 60 minutes at 30° C. preincubation; Ki determined from IC50 according to Cer et al.
# Protocol: USP7 activity was measured using Rhodamine-110 c-terminal labelled Ubiquitin as a substrate (UbiQ Bio), Incubation with USP7 results in the release of Rhodamine-110 leading to an increase in fluorescence which can be used in the continuous measurement of USP7 activity.
# The USP7 reactions were performed in a 50 μL volume, in 384 well black solid low binding plates (Corning #3575). The reaction buffer consisted of 100 mM Bicine pH 8.0, 0.01% TritonX 100, 1 mM TCEP, and 10% DMSO.
# 0.25 nM His-His-USP7 (aa208-560, |C315A|) was incubated with compound (final concentration 10% DMSO) for 60 minutes at 30° C. The reaction was then initiated by the addition of 50) nM Ubiquitin-Rhodamine-110 substrate or 4 μM Ubiquitin-Rhodamine-110 substrate and the plate read every 3 minutes for 21 minutes to measure the release of Rhodamine-110. Fluorescence Intensity (FLINT) readings were measured using a Biomek Neo plate reader (Ex.485 nm, Em.535 nm).
# The inhibition of increasing doses of compound was expressed as a percentage reduction in kinetic rate compared to the kinetic rates established between ‘DMSO only’ and ‘total inhibition’ controls (no USP7). The inhibitory concentrations that gave a 50% reduction in kinetic rate (IC50) were determined, from 11-point dose response curves, in XL-Fit using a 4-Parameter Logistic Model 205 (Sigmoidal Dose-Response Model). The K, values were determined from the IC50 values according to Cer et al. Nucleic Acids Res. 2009, July 1; 37 (WebServer issue): W441-W445.
# T1 sequence (Q93009 208-560 C315A): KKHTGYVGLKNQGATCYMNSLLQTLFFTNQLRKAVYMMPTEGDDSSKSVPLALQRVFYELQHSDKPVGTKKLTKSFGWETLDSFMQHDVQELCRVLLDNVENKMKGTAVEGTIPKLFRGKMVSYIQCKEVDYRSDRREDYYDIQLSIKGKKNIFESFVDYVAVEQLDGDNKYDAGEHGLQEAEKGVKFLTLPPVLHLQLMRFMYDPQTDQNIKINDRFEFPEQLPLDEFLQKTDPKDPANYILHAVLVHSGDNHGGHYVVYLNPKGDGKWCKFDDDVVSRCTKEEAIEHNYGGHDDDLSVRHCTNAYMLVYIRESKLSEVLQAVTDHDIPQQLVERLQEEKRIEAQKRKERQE
row,Ki,Compound
1,103 nM,"Nc1c(Oc2ccc(F)cc2)ncn(CC2(O)CCN(C(=O)[C@@H]3CCNC[C@H]3c3ccccc3)CC2)c1=O [Example 21, 5-amino-6-(4-fluorophenoxy)-3-[[4-hydroxy-1-[(3R,4R)-3-phenylpiperidine-4-carbonyl]-4-piperidyl]methyl]pyrimidin-4-one]"
2,78.5 nM,"Nc1c(Oc2ccc(F)cc2)ncn(CC2(O)CCN(C(=O)[C@@H]3CCN(C4(c5cccc(Br)c5)COC4)C[C@H]3c3ccccc3)CC2)c1=O [Example 170, 5-amino-3-[[1-[(3R,4R)-1-[3-(3-bromophenyl)oxetan-3-yl]-3-phenyl-piperidine-4-carbonyl]-4-hydroxy-4-piperidyl]methyl]-6-(4-fluorophenoxy)pyrimidin-4-one]"
3,112 nM,"Nc1c(Oc2ccc(F)cc2)ncn(C[C@@]2(O)CCN(C(=O)[C@@H]3CCN(C(=O)C4CC(c5ccccc5)C4)C[C@H]3c3ccccc3)CC2(F)F)c1=O (single isomer, unassigned) [Example 71]"
4,4.6 nM,Cc1ccc(-c2cccc(C(=O)N3CC[C@@H](C(=O)N4CCC(O)(Cn5cnc(Oc6ccc(F)cc6)c(N)c5=O)CC4)[C@H](c4ccccc4)C3)c2)cn1 [Example 32]
5,235 nM,"Nc1c(Oc2ccc(F)cc2)ncn(C[C@@]2(O)CCN(C(=O)[C@@H]3CCN(C(=O)C4CC(c5ccccc5)C4)C[C@H]3c3ccccc3)CC2(F)F)c1=O (single isomer, unassigned) [Example 72]"
6,344 nM,"Nc1c(Oc2cccc(OC(F)(F)F)c2)ncn(CC2(O)CCN(C(=O)[C@@H]3CCNC[C@H]3c3ccccc3)CC2)c1=O [Example 19, 5-amino-3-[[4-hydroxy-1-[(3R,4R)-3-phenylpiperidine-4-carbonyl]-4-piperidyl]methyl]-6-[3-(trifluoromethoxy)phenoxy]pyrimidin-4-one hydrochloride]"
7,98.2 nM,"COc1cc(Oc2ncn(C[C@@]3(O)CCN(C(=O)[C@@H]4CCN(Cc5ccncn5)C[C@H]4c4ccccc4)CC3(F)F)c(=O)c2N)ccc1F [Example 220, 5-amino-3-[[(4S)-3,3-difluoro-4-hydroxy-1-[(3R,4R)-3-phenyl-1-(pyrimidin-4-ylmethyl)piperidine-4-carbonyl]-4-piperidyl]methyl]-6-(4-fluoro-3-methoxy-phenoxy)pyrimidin-4-one]"

# The remaining lines, values behind:
row,Compound,Ki
1,"COc1cc(Cl)cc(Oc2ncn(CC3(O)CCN(C(=O)[C@@H]4CCN(C(=O)OC(C)(C)C)C[C@H]4c4ccccc4)CC3)c(=O)c2N)c1 [Example 2, tert-butyl (3R,4R)-4-[4-[[5-amino-4-(3-chloro-5-methoxy-phenoxy)-6-oxo-pyrimidin-1-yl]methyl]-4-hydroxy-piperidine-1-carbonyl]-3-phenyl-piperidine-1-carboxylate]",191 nM
2,CC(C)(C)OC(=O)N1CC[C@@H](C(=O)N2CCC(O)(Cn3cnc(Oc4cccc(OC(F)(F)F)c4)c(N)c3=O)CC2)[C@H](c2ccccc2)C1 [Example 6],398 nM
3,"CC1(N2CC[C@@H](C(=O)N3CCC(O)(Cn4cnc(Oc5ccc(F)cc5)c(N)c4=O)CC3)[C@H](c3ccccc3)C2)COC1 [Example 111, 5-amino-6-(4-fluorophenoxy)-3-[[4-hydroxy-1-[(3R,4R)-1-(3-methyloxetan-3-yl)-3-phenyl-piperidine-4-carbonyl]-4-piperidyl]methyl]pyrimidin-4-one]",312 nM
4,"CC(C)(C)OC(=O)N1CC[C@@H](C(=O)N2CCC(O)(Cn3cnc(Oc4cccc(C(F)(F)F)c4)c(N)c3=O)CC2)[C@H](c2ccccc2)C1 [Example 5, tert-butyl (3R,4R)-4-[4-[[5-amino-6-oxo-4-[3-(trifluoromethyl)phenoxy]pyrimidin-1-yl]methyl]-4-hydroxy-piperidine-1-carbonyl]-3-phenyl-piperidine-1-carboxylate]",299 nM
5,"CC(C)(C)OC(=O)N1CC[C@@H](C(=O)N2CC[C@](O)(Cn3cnc(Oc4ccccc4)c(N)c3=O)C(F)(F)C2)[C@H](c2ccccc2)C1 [Example 9, tert-butyl (3R,4R)-4-[(4S)-4-[(5-amino-6-oxo-4-phenoxy-pyrimidin-1-yl)methyl]-3,3-difluoro-4-hydroxy-piperidine-1-carbonyl]-3-phenyl-piperidine-1-carboxylate]",82.5 nM
6,COc1cc(Oc2ncnc(OC[C@@]3(O)CCN(C(=O)[C@@H]4CCN(C(=O)OC(C)(C)C)C[C@H]4c4ccccc4)CC3(F)F)c2N)ccc1F [Example 135],206 nM
7,"Nc1c(Oc2ccccc2)ncn(CC2(O)CCN(C(=O)[C@@H]3CCNC[C@H]3c3ccccc3)CC2)c1=O [Example 20, 5-amino-3-[4-hydroxy-1-[(3R,4R)N-phenylpiperidine-4-carbonyl-4-piperidyl]methyl]-6-phenoxy-pyrimidin-4-one]",112 nM
8,"COc1ccc(C2(N3CC[C@@H](C(=O)N4CCC(O)(Cn5cnc(Oc6ccc(F)cc6)c(N)c5=O)CC4)[C@H](c4ccccc4)C3)COC2)cc1 [Example 156, 5-amino-6-(4-fluorophenoxy)-3-[[4-hydroxy-1-[(3R,4R)-1-[3-(4-methoxyphenyl)oxetan-3-yl]-3-phenyl-piperidine-4-carbonyl]-4-piperidyl]methyl]pyrimidin-4-one]",140 nM
9,"COc1cc(Oc2ncn(CC3(O)CCN(C(=O)[C@@H]4CCN(C(=O)OC(C)(C)C)C[C@H]4c4ccccc4)CC3)c(=O)c2N)ccc1F [Example 4, tert-butyl (3R,4R)-4-[4-[[5-amino-4(4-fluoro-3-methoxy-phenoxy)-6-oxo-pyrimidin-1-yl]methyl]-4-hydroxy-piperidine-1-carbonyl]-3-phenyl-piperidine-1-carboxylate]",115 nM
10,"Nc1c(Oc2ccc(F)cc2)ncn(CC2(O)CCN(C(=O)[C@@H]3CCN(S(=O)(=O)c4ccc(-c5cccs5)s4)C[C@H]3c3ccccc3)CC2)c1=O [Example 118, 5-amino-6-(4-fluorophenoxy)-3-[[4-hydroxy-1-[(3R,4R)-3-phenyl-[[5-(2thienyl)-2-thienyl]sulfonyl]piperidine-4-carbonyl]-4-piperidyl]methyl]pyrimidin-4-one]",123 nM
11,"CC(C)(C)OC(=O)N1CC[C@@H](C(=O)N2CCC(O)(Cn3cnc(Oc4cccnc4)c(N)c3=O)CC2)[C@H](c2ccccc2)C1 [Example 137, tert-butyl (3R,4R)-4-[4-[[5-amino-6-oxo-4-(3-pyridyloxy)pyrimidin-1-yl]methyl]-4-hydroxy-piperidine-1-carbonyl]-3-phenyl-piperidine-1-carboxylate]",226 nM
12,"CC(C)(C)OC(=O)N1CC[C@@H](C(=O)N2CCC(O)(Cn3cnc(Oc4ccccc4)c(N)c3=O)CC2)[C@H](c2ccccc2)C1 [Example 7, tert-butyl (3R,4R)-4-[4-[(5-amino-6-oxo-4-phenoxy-pyrimidin-1-yl)methyl]-4-hydroxy-piperidine-1-carbonyl]-3-phenyl-piperidine-1-carboxylate]",137 nM
13,"CC(C)(O)CN1CC[C@@H](C(=O)N2CCC(O)(Cn3cnc(Oc4ccc(F)cc4)c(N)c3=O)CC2)[C@H](c2ccccc2)C1 [Example 73, 5-amino-6-(4-fluorophenoxy)-3-[[4-hydroxy-1-[(3R,4R)-1-(2-hydroxy-2-methyl-propyl)-3-phenyl-piperidine-4-carbonyl]-4-piperidyl]methyl]pyrimidin-4-one]",326 nM
